Measurements from US20160338351A1, “(S)-ABSCISIC ACID DERIVATIVES FOR ENHANCED GRAPE COLORATION” (Valent BioSciences Corporation, priority 2015, published 2016).
“Also recorded” adds a separate entry of the source. Where a name gives a salt, the structure may show the parent alone.

Columns and labels:
Type in all cases: in vivo, Vitis vinifera
[1] = tested on: Crimson Seedless grape clusters; test: Field study, Example 1: visual rating of red grape coloration, % of berries with marketable color
Description: (§1) A field study was conducted in California to compare the efficacy of S-ABA to 3′-methyl-(S)-ABA in promoting red grape coloration. S-ABA and 3′-methyl-(S)-ABA were formulated as aqueous solutions of the corresponding potassium salt to the desired concentrations with the final pHs being between 6.5 and 7.2. Individual Crimson Seedless grape clusters were selected and tagged, with 20 tagged clusters per treatment. The treatments were applied as cluster-directed sprays using a trigger sprayer at 15 to 20 mL per cluster to ensured good coverage of the grapes. Application of 15 to 20 milliliters per cluster simulates application of about 109 gallons per acre directed at the approximately 40 clusters per vine in a vineyard with 518 vines per acre. Based on these estimates, Applicant determined the approximate grams per acre. The equation is as follows: 20 ml/cluster×40 cluster/vine=800 ml/vine×518 vine/acre=(414,400 ml/acre)/(1000 ml/liter)=414 liters/acre. An estimation of grams per acre was made by multiplying the mg per cluster with 20,720 clusters/acre (40 clusters/vine×518 vines/acre=20,720 clusters/acre).
(§2) Periodically after the treatments, the grape clusters were evaluated for color development by visual ratings over a six-week period. The coloration was graded on a 1 to 8 grading scale, where a rating of 1 has very little or no red color and a rating of 8 has a deep or dark red color. The percentages of berries that reached marketable red coloration for each cluster were averaged and recorded for each treatment. Additionally, representative berries from each treatment group were harvested about four weeks after treatment and analyzed for anthocyanin content.

Crimson Seedless grapes = test: Trial, Example 2: visual color rating of grape clusters on a 1 to 8 scale; design: key to Color Ratings: 1 = little/no red color, 8 = deep/dark red color; conditions: for Color Ratings: applied day 0 and day 11, 1 to 8 grading scale
Description: Another trial was conducted in California on Crimson Seedless grapes to compare the efficacy of S-ABA, 3′-methyl-(S)-ABA and 3′-propargyl-(S)-ABA in promoting coloration. All three compounds were formulated as aqueous solutions of the corresponding potassium salt to the desired concentrations, with the final pHs being between 6.5 and 7.2. Individual Crimson Seedless grape clusters were selected and tagged, with 20 tagged clusters per treatment. The solutions were applied as cluster-directed sprays using a trigger sprayer at 15 to 20 milliliters per cluster which ensured good coverage of the grapes. The treatments were applied on day 0 and day 11 of the trial. Periodically during the trial, the grape clusters were evaluated for color development by visual ratings over a six-week period and the coloration was graded on a 1 to 8 grading scale, where a rating of 1 has very little or no red color and a rating of 8 has a deep or dark red color.

[2] = tested on: Crimson Seedless grape clusters; test: Field study, Example 1: anthocyanin content of berries harvested about four weeks after treatment; conditions: berries harvested about four weeks after treatment
Description: as §1, §2

CC1=CC(=O)CC(C)(C)[C@@]1(O)/C=C/C(C)=C/C(=O)O [S-ABA, K^+ salt, (S)-abscisic acid]
Coloring Ratings, % of the berries with marketable color ([1]; 200 ppm, 3-4 mg/cluster, 60-80 grams/acre, 7 DAT): 41% | Coloring Ratings, % of the berries with marketable color ([1]; 200 ppm, 3-4 mg/cluster, 60-80 grams/acre, 14 DAT): 78% | Coloring Ratings, % of the berries with marketable color ([1]; 200 ppm, 3-4 mg/cluster, 60-80 grams/acre, 27 DAT): 84% | Coloring Ratings, % of the berries with marketable color ([1]; 200 ppm, 3-4 mg/cluster, 60-80 grams/acre, 33 DAT): 88% | Coloring Ratings, % of the berries with marketable color ([1]; 200 ppm, 3-4 mg/cluster, 60-80 grams/acre, 43 DAT): 89% | Coloring Ratings, % of the berries with marketable color ([1]; 400 ppm, 6-8 mg/cluster, 120-160 grams/acre, 7 DAT): 47% | Coloring Ratings, % of the berries with marketable color ([1]; 400 ppm, 6-8 mg/cluster, 120-160 grams/acre, 14 DAT): 80% | Coloring Ratings, % of the berries with marketable color ([1]; 400 ppm, 6-8 mg/cluster, 120-160 grams/acre, 27 DAT): 85% | Coloring Ratings, % of the berries with marketable color ([1]; 400 ppm, 6-8 mg/cluster, 120-160 grams/acre, 33 DAT): 88% | Coloring Ratings, % of the berries with marketable color ([1]; 400 ppm, 6-8 mg/cluster, 120-160 grams/acre, 43 DAT): 91% | time to reach ~90% marketable coloration ([1]; 400 ppm, 6 to 8 mg per cluster): five weeks; also recorded: five or six weeks | Color Ratings (Crimson Seedless grapes; 200 ppm, 3-4 mg/cluster, 60-80 g/acre, 3 DAT): 1 | Color Ratings (Crimson Seedless grapes; 200 ppm, 3-4 mg/cluster, 60-80 g/acre, 10 DAT): 2.2 | Color Ratings (Crimson Seedless grapes; 200 ppm, 3-4 mg/cluster, 60-80 g/acre, 14 DAT): 2.6 | Color Ratings (Crimson Seedless grapes; 200 ppm, 3-4 mg/cluster, 60-80 g/acre, 21 DAT): 4.1 | Color Ratings (Crimson Seedless grapes; 200 ppm, 3-4 mg/cluster, 60-80 g/acre, 31 DAT): 5.1 | Color Ratings (Crimson Seedless grapes; 200 ppm, 3-4 mg/cluster, 60-80 g/acre, 41 DAT (end of six-week evaluation)): 5.4 | Color Ratings (Crimson Seedless grapes; 400 ppm, 6-8 mg/cluster, 120-160 g/acre, 3 DAT): 1 | Color Ratings (Crimson Seedless grapes; 400 ppm, 6-8 mg/cluster, 120-160 g/acre, 10 DAT): 2.9 | Color Ratings (Crimson Seedless grapes; 400 ppm, 6-8 mg/cluster, 120-160 g/acre, 14 DAT): 3.5 | Color Ratings (Crimson Seedless grapes; 400 ppm, 6-8 mg/cluster, 120-160 g/acre, 21 DAT): 4.5 | Color Ratings (Crimson Seedless grapes; 400 ppm, 6-8 mg/cluster, 120-160 g/acre, 31 DAT): 5.9 | Color Ratings (Crimson Seedless grapes; 400 ppm, 6-8 mg/cluster, 120-160 g/acre, 41 DAT (end of six-week evaluation)): 6.4 | red color development in comparison with the untreated control (Crimson Seedless grapes; six-week evaluation period): dose-dependent accelerated red color development | Total Anthocyanin Content ([2]; 3-4 mg/cluster (200 ppm, 15-20 mL)): 73 mg/L | Total Anthocyanin Content ([2]; 6-8 mg/cluster (400 ppm, 15-20 mL)): 83 mg/L
